Test results: PubChem BioAssay (NCI)
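Compound exposure: 48 hours, 5 concentrations, 96-well plates. At the GI50, growth is halved. TGI: concentration producing complete growth inhibition.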

Experiments:
Assay in all cases: inhibition of tumour cell growth, NCI panel, 48 h
HCT-15 colon = tested on: HCT-15 colon
HS 578T breast = tested on: HS 578T breast
HT29 colon = tested on: HT29 colon
K-562 leukemia = tested on: K-562 leukemia
MCF7 breast = tested on: MCF7 breast
OVCAR-4 ovarian = tested on: OVCAR-4 ovarian
OVCAR-5 ovarian = tested on: OVCAR-5 ovarian
SK-MEL-2 melanoma = tested on: SK-MEL-2 melanoma
SNB-75 CNS = tested on: SNB-75 CNS
TK-10 renal = tested on: TK-10 renal

SMILES | GI50 (HCT-15 colon) [µM] | TGI (HCT-15 colon) [µM] | GI50 (HS 578T breast) [µM] | TGI (HS 578T breast) [µM] | GI50 (HT29 colon) [µM] | TGI (HT29 colon) [µM] | GI50 (K-562 leukemia) [µM] | TGI (K-562 leukemia) [µM] | GI50 (MCF7 breast) [µM] | TGI (MCF7 breast) [µM] | GI50 (OVCAR-4 ovarian) [µM] | TGI (OVCAR-4 ovarian) [µM] | GI50 (OVCAR-5 ovarian) [µM] | TGI (OVCAR-5 ovarian) [µM] | GI50 (SK-MEL-2 melanoma) [µM] | TGI (SK-MEL-2 melanoma) [µM] | GI50 (SNB-75 CNS) [µM] | TGI (SNB-75 CNS) [µM] | GI50 (TK-10 renal) [µM] | TGI (TK-10 renal) [µM]
CCN(CC)S(=O)(=O)c1ccc(OC)c(Nc2ncc(-c3ccccc3)o2)c1 | > 15.5 | > 25 | > 14.4 | > 25 | > 17.6 | > 25 | > 16.2 | > 25 | > 14.7 | > 25 | 5.57 | > 25 | > 21.7 | > 25 | > 22.7 | > 25 | > 9.36 | > 25 | > 17.4 | > 25
CCN1C(=O)N(CC)C2C1NN=c1s/c(=C\c3cccnc3)c(=O)n12 (centres undefined) | 0.414 | > 100 | 0.44 | > 100 | 0.386 | > 100 | 0.3 | > 100 | 0.333 | > 100 | 5.72 | > 100 | 1.97 | > 100 | > 100 | > 100 | 0.116 |  | > 100 | > 100
COC(=O)[C@]12CC[C@@H](C)[C@H](C)[C@@H]1C1=CC[C@@H]3[C@@]4(C)C[C@@H](OC(C)=O)[C@H](O)[C@@](C)(COC(C)=O)[C@@H]4[C@H](O)C[C@@]3(C)[C@]1(C)CC2 | 2.51 | 9.01 | 2.95 | 12.6 | 1.82 | 3.7 | 2.33 | 6.06 | 2.01 | 5.71 | 3.23 | 14.2 | 2.23 | 7.61 | 2.84 | 7.39 | 2.35 | 11.7 | 2.68 | 8.97
CNC(=O)n1ccc2cc(Oc3ccnc(NC(=O)c4ccc(C5CCN(CCO)CC5)cc4)c3)c(OCCOC)cc21 | 4.42 | 15.6 | 1.84 | 7.37 | 0.801 | 11.1 | 0.529 | 10.6 | 4.33 | 19.5 | 1.99 | 5.78 | 8.43 | 22.7 | 8.57 | 23.2 | 1.84 | 7.28 | 15.3 | 29.6
Cc1ccc(S(=O)(=O)N2CCSCCSCCSCCSCC2)cc1 |  | > 100 |  | > 53.1 |  | > 100 |  | > 100 |  | > 100 |  | 64.2 |  | > 100 |  | > 53.6 |  | 29.8 |  | > 74.5
COC1(C(=O)N[C@@H](C)c2ccc(-n3cc(F)cn3)nc2)CCC(c2nc(C)cc(Nc3cc(C)[nH]n3)n2)CC1 (some centres undefined) | 2.93 | 13.3 | 0.248 | 1.31 | 2.31 | 22.4 | 3.27 | > 100 | 1.53 | 14.6 | 1.94 | 17.9 | 1.4 | 12.5 | 6.82 | 23.2 | 0.196 | 0.848 | 1.96 | 8.97
O=C(Cn1ccc(=O)[nH]c1=O)Nc1ccc(C(=O)O)c(O)c1 |  | > 100 |  | > 100 |  | > 100 |  | > 100 |  | > 100 |  | > 100 |  | > 100 |  | > 100 |  | > 100 |  | > 100
